Converted amounts (≈) assume the structure as drawn. Read-outs that look alike come from different tables or passages of the source.
How the values were obtained:
physchem = settings: 25 °C, pH 4.5, aqueous buffer, thermodynamic from solid, solubility of LD
[1] = Hydrolysis of LDEE salts to LD in aqueous solution, monitored by HPLC; type: physicochemical
[2] = Pharmacokinetic study of infusion of LDEE.HCl formulation in minipigs; type: in vivo; settings: for concentration at 1 h: 1 hour after start of 16 h s.c. infusion of 1,142 mg LDEE; for concentration at 2 h: 2 hour after start of 16 h s.c. infusion of 1,142 mg LDEE; for concentration at 4 h: 4 hour after start of 16 h s.c. infusion of 1,142 mg LDEE; for concentration at 8 h: 8 hour after start of 16 h s.c. infusion of 1,142 mg LDEE; for concentration at 16 h: 16 hour after start of 16 h s.c. infusion of 1,142 mg LDEE
Protocol: (§1) Citrate buffered LDEE.HCl solutions having a pH of 4.5-5.0 were infused into the neck/shoulder regions of juvenile minipigs weighing about 10 kgs. Two minipigs were treated. On each minipig, the solutions were simultaneously infused at two infusion sites, one on the left neck/shoulder and one on the right neck/shoulder. A total of 5.24 mL of solution containing 218 mg/mL LDEE was infused into each minipig over a period of 16 hours, delivering a total dose of 1,142 mg LDEE to each minipig. The dose was split equally between the two infusion sites, with each infusion site receiving 571 mg LDEE in 2.62 mL over 16 hours.
Blood samples were collected at times 0 (pre-dose), 30 minutes, and 1, 2, 4, 8 and 16 hours after the start of the infusion. Approximately 3 mL whole blood was collected from the jugular vein. The whole blood was collected into tubes containing K2 EDTA as the anticoagulant. Immediately after collection the samples were centrifuged for ˜15 minutes at ˜3000 RPM, at ˜4° C. Each plasma sample was then transferred to a plastic cryovial containing sodium metabisulfite and sodium fluoride as preservatives. After the samples were processed they were placed on dry ice until movement to storage at ˜−70 degrees Celsius. The samples were analyzed for LDEE using LC-MS.

[3] = 25° C., cited from earlier work
[4] = Solubility of LD in citrate buffered LDEE.HCl solutions near pH 4.5; settings: for solubility: citrate buffered aqueous solution, 25 °C, thermodynamic from solid, solubility of LD, citrate buffered
[5] = Precipitation of LD from / clarity of LDEE solutions on holding
[6] = Achievable concentration and density of concentrated LDEE salt solutions; settings: LDEE acetate in water/acetic acid, pH 4.7
[7] = Estimated / projected shelf life and operational life (time to LD saturation); settings: about 2.65 M LDEE.HCl, constant pH 5.1, 23±2° C.
juvenile minipigs = experiment: Subcutaneous infusion in minipigs, symptoms at infusion site; type: in vivo, minipig; settings: s.c. two sites, 218 mg/mL, 1,142 mg LDEE over 16 hours
Protocol: Citrate buffered LDEE.HCl solutions having a pH of 4.5-5.0 were infused into the shoulders of juvenile minipigs weighing about 10 kgs.
as §1, with “A total of 5.24 mL of solution containing 218 mg/mL LDEE was infused into each minipig over a period of 16 hours, delivering a total dose of 1,142 mg LDEE to each minipig.” left out

[8] = minipig, in vivo, sc, 1142 mg, plasma, read-out: LD Concentration, Minipig #1
[9] = minipig, in vivo, sc, 1142 mg, plasma, read-out: LD Concentration, Minipig #2
[10] = plasma, Pre-dose, 16 h s.c. infusion of 1,142 mg LDEE
[11] = minipig, plasma, sc, 1142 mg, plasma, read-out: LDEE Concentration, Minipig #1
[12] = minipig, plasma, sc, 1142 mg, plasma, read-out: LDEE Concentration, Minipig #2

## N[C@@H](Cc1ccc(O)c(O)c1)C(=O)O [LD, levodopa]
physchem
  solubility: ≥ 5800 µg/mL
[1]; about 2.65 M LDEE.HCl, pH 5.1, after 7 days at 23±2° C.
  LD concentration in solution (supersaturated, no precipitation until seeded): about 35 g per liter
[2]; minipig, in vivo, sc, 1142 mg, plasma, 30 minutes after start of 16 h s.c. infusion of 1,142 mg LDEE, read-out: LD Concentration, Minipig #1
  concentration at 30 min: 716 ng/mL
[2]; minipig, in vivo, sc, 1142 mg, plasma, 30 minutes after start of 16 h s.c. infusion of 1,142 mg LDEE, read-out: LD Concentration, Minipig #2
  concentration at 30 min: 1180 ng/mL
[2]; [8]
  concentration at 1 h: 694 ng/mL
  concentration at 2 h: 1540 ng/mL
  concentration at 4 h: 1590 ng/mL
  concentration at 8 h: 3180 ng/mL
  concentration at 16 h: 1550 ng/mL
[2]; [9]
  concentration at 1 h: 1050 ng/mL
  concentration at 2 h: 1370 ng/mL
  concentration at 4 h: 2490 ng/mL
  concentration at 8 h: 2370 ng/mL
  concentration at 16 h: 1830 ng/mL
[2]; minipig, plasma, subcutaneous, 114.2 mg/kg, minipigs, LDEE 114.2 mg/kg s.c. over 16 hours, read-out: circulating plasma LD concentration achieved within 30 minutes of initiation of infusion
  concentration at 30 min: > 700 ng/mL
[2]; minipig, plasma, subcutaneous, 114.2 mg/kg, minipigs, LDEE 114.2 mg/kg s.c. over 16 hours, read-out: circulating plasma LD concentration achieved within 60 minutes of initiation of infusion
  concentration at 60 min: > 400 ng/mL
[2]; minipigs, LDEE 114.2 mg/kg s.c. over 16 hours, lower bound
  circulating plasma LD concentration continuously maintained for at least 8 hours: greater than 1,600 ng/mL
[2]; minipigs, LDEE 114.2 mg/kg s.c. over 16 hours, upper bound
  circulating plasma LD concentration continuously maintained for at least 8 hours: less than 5,000 ng/mL
[2]; [10]
  LD Concentration, Minipig #1: 9.0 ng/mL
  LD Concentration, Minipig #2: 31.0 ng/mL
[3]; neutral pH
  solubility of levodopa: about 1.65 g per liter
[3]; pH 5
  solubility of levodopa: about 2.8 g per liter
[4]; pH 4.5, aqueous buffer, about pH 4.5, no LDEE.HCl
  solubility: ~34 mM (≈ 6.7 mg/mL)
[4]; pH 4.5, aqueous with cosolvent or surfactant or cyclodextrin, about pH 4.5, 1.3 M LDEE.HCl
  solubility: ~51 mM (≈ 10.1 mg/mL)
[4]; pH 4.5, aqueous with cosolvent or surfactant or cyclodextrin, about pH 4.5, about 2.6 M LDEE.HCl
  solubility: ~86 mM (≈ 17 mg/mL)
[4]; near pH 4.5
  solubility of LD in 2.7 M LDEE.HCl relative to absence of LDEE.HCl: about three times more soluble
[4]; near pH 4.5, 2.7 M LDEE.HCl, about 25±1° C.
  solubility of LD: about 17 g per liter

## CC(=O)O.CCOC(=O)[C@@H](N)Cc1ccc(O)c(O)c1 [LDEE acetate]
[5]; about 1.2 M LDEE + LDEE acetate suspension, pH about 7.01, about 37° C., 3 hours
  precipitation of LD: no heavy precipitation
[5]; about 1.2 M LDEE + LDEE acetate, pH about 7.01, 37° C., 16 hours
  precipitation of LD: extensive precipitation of LD
[5]; about 2.4 M LDEE acetate, pH 4.7, about 23±2° C., after 96 hours
  appearance of solution: clear, i.e., precipitate free
[1]; about 2.4 M LDEE acetate, pH 4.7, about 23±2° C.
  initial rate of hydrolysis: about 4.0±0.4 % per day
[1]; about 2.4 M LDEE acetate, pH 4.7, about 23±2° C., 24 h
  % of the LDEE hydrolyzed: 4.5%
[1]; about 2.4 M LDEE acetate, pH 4.7, about 23±2° C., 96 hours
  % of the LDEE hydrolyzed to LD: 14.5%
[1]; about pH 4.5, about 23° C.
  rate of hydrolysis relative to LDEE.HCl: about 3 times
[6]
  concentration of clear solution: about 2.4 M

## CCOC(=O)[C@@H](N)Cc1ccc(O)c(O)c1 [LDEE, levodopa ethyl ester]
[7]
  expected time to LD precipitation (operational life): about 4 days
[5]; 2.6 M LDEE.HCl, pH 5.5 (trisodium citrate), stirring at ambient temperature
  time to LD precipitation: about 30 hours
[5]; about 0.25M LDEE in physiological saline, 16 hours at 37° C.
  precipitation of LD: extensive precipitation of LD
Juvenile minipigs; resolved over 24 hours
  swelling at infusion sites at end of infusion: mild swelling in an area of about 1×2 cm
Juvenile minipigs; resolved over about one week
  subsequent subcutaneous nodules: small subcutaneous nodules of about 1×1 cm
[1]; about 2.65 M LDEE.HCl, pH 5.1, 23±2° C.
  % of the LDEE hydrolyzed daily: about 0.88%
[1]; about 2.65 M LDEE.HCl, pH 5.1 citrate, 7 days at 23±2° C., nitrogen flushed
  % of the LDEE hydrolyzed to LD: 6.2%
[1]; near pH 7, about 37° C.
  rate of hydrolysis relative to LDME: about four times faster
[2]; minipig, plasma, sc, 1142 mg, plasma, 30 minutes after start of 16 h s.c. infusion of 1,142 mg LDEE, read-out: LDEE Concentration, Minipig #1
  concentration at 30 min: 6.2 ng/mL
[2]; minipig, plasma, sc, 1142 mg, plasma, 30 minutes after start of 16 h s.c. infusion of 1,142 mg LDEE, read-out: LDEE Concentration, Minipig #2
  concentration at 30 min: 6.2 ng/mL
[2]; [11]
  concentration at 1 h: 6.4 ng/mL
  concentration at 2 h: 6.3 ng/mL
  concentration at 4 h: 6.8 ng/mL
  concentration at 8 h: 10 ng/mL
  concentration at 16 h: 10 ng/mL
[2]; [12]
  concentration at 1 h: 4.8 ng/mL
  concentration at 2 h: 6.3 ng/mL
  concentration at 4 h: 7.9 ng/mL
  concentration at 8 h: 10.9 ng/mL
  concentration at 16 h: 11.5 ng/mL
[2]; minipigs, LDEE formulation 114.2 mg/kg s.c. over 16 hours
  circulating plasma LDEE concentration during infusion: ≤ 15 ng/mL
[2]; [10]
  LDEE Concentration, Minipig #1: 3.6 ng/mL
  LDEE Concentration, Minipig #2: 3.3 ng/mL
